Values after ≈ are worked out from the molar mass of the structure shown. Active and inactive are the calls of the source. No cut-off for these calls is given here.
Assays:
Bacillus subtilis = experiment: Minimum inhibitory concentration against Bacillus subtilis; assay type: functional
Staphylococcus aureus [1] = experiment: Activity against methicillin sensitive organism Staphylococcus aureus 853 in presence of serum.; assay type: functional, organism-based
Staphylococcus aureus [2] = experiment: Minimum inhibitory concentration against methicillin resistant organism Staphylococcus aureus COL; assay type: functional
Staphylococcus aureus [3] = experiment: Minimum inhibitory concentration against methicillin sensitive organism Staphylococcus aureus 853; assay type: functional

Row | Structure (SMILES) | MIC (Bacillus subtilis) [µg/mL] | MIC (Staphylococcus aureus [1]) | MIC (Staphylococcus aureus [2]) [µg/mL] | MIC (Staphylococcus aureus [3]) [µg/mL]
1 | CCC(C)C(=O)C(=O)NCCn1c(-c2ccccc2)nc2ccccc21 (stereo unspecified) | > 32 | inactive | 16 (≈ 45.8 µM) | 8 (≈ 22.9 µM)
2 | CCC(C)C(=O)C(=O)NCCc1cn(Cc2ccccc2)c2ccccc12 (stereo unspecified) | > 32 | inactive | > 32 | 2 (≈ 5.52 µM)
3 | CCC(C)C(=O)C(=O)NCCn1c[n+](C)c2ccccc21.[I-] (stereo unspecified) | > 32 | inactive | – | > 32
4 | O=C1c2ccccc2C(=O)N1CCc1c(-c2cccnc2)[nH]c2ccccc12 | – | inactive | – | –
5 | O=C1c2ccccc2C(=O)N1CCn1c(-c2ccccc2)nc2ccccc21 | – | inactive | – | –
6 | O=C1c2ccccc2C(=O)N1CCc1c[nH]c2ccccc12 | – | inactive | – | –
7 | CCC(C)C(=O)C(=O)NCCc1c(-c2ccccc2)[nH]c2ccccc12 (stereo unspecified) | 8 (≈ 23 µM) | inactive | 0.06 (≈ 0.172 µM) | < 0.03
8 | O=C1c2ccccc2C(=O)N1CCn1cnc2ccccc21 | – | inactive | – | –
9 | CCC(C)C(=O)C(=O)NCCc1c(-c2ccc[n+](C)c2)[nH]c2ccccc12.[I-] (stereo unspecified) | > 32 | inactive | – | > 32
10 | O=C1c2ccccc2C(=O)N1CCc1c(-c2ccccc2)[nH]c2ccccc12 | – | inactive | – | –
11 | CCC(C)C(=O)C(=O)NCCn1c(-c2ccccc2)[n+](C)c2ccccc21.[I-] (stereo unspecified) | > 32 | inactive | – | > 32
12 | CCC(C)C(=O)C(=O)NCCc1c(-c2cccnc2)[nH]c2ccccc12 (stereo unspecified) | > 32 | inactive | 4 (≈ 11.4 µM) | 0.5 (≈ 1.43 µM)
13 | CCC(C)C(=O)C(=O)NCCc1c[nH]c2ccccc12 (stereo unspecified) | > 32 | inactive | 16 (≈ 58.7 µM) | 2 (≈ 7.34 µM)
14 | CCC(C)C(=O)C(=O)NCCc1c(-c2ccc[n+](CC(N)=O)c2)[nH]c2ccccc12.[I-] (stereo unspecified) | > 32 | inactive | – | > 32
15 | O=[N+]([O-])c1ccccc1F | – | inactive | – | –
16 | CCC(C)C(=O)C(=O)NCCn1cnc2ccccc21 (stereo unspecified) | > 32 | inactive | – | > 32
